US9403756B2, “N-phenyl anthranilic acid derivatives and uses thereof” (Ramot at Tel-Aviv University Ltd., priority 2007, dated 2016)

How the values were obtained:
TRPV1 channel = target: T1, TRPV1 channel (Homo sapiens, UniProt Q8NER1); assay: TRPV1 currents in transfected CHO cells activated with capsaicin; assay type: cell-based; details: 0.5 μM capsaicin
T1 construct: expressed in transfected cells; host or cells: CHO cells
Procedure: Chinese hamster ovary (CHO) cells were grown in Dulbecco's modified Eagle's medium (DMEM) supplemented with 2 mM glutamine, 10% fetal calf serum and antibiotics. Briefly, 40,000 cells seeded on poly-D-lysine-coated glass coverslips (13 mm diameter) in a 24-multiwell plate were transfected with pIRES-CD8 (0.5 μg) as a marker for transfection, and with Kv7.2 (0.5 μg) and Kv7.3 (0.5 μg) or TRPV1 […] or TRPV6 […].
For electrophysiology, transfected cells were visualized approximately 40 hours following transfection, using anti-CD8 antibody-coated beads. Transfection was performed using Fugene 6 (Roche, Indianapolis Ind., USA) according to the manufacturer's protocol.
Voltage-clamp recordings in CHO cells were performed, using the whole-cell configuration of the patch-clamp technique. Signals were amplified using an Axopatch 200B patch-clamp amplifier (Molecular Devices, Sunnyvale, Calif.), sampled at 2 kHz and filtered at 800 Hz via a 4-pole Bessel low pass filter. Data were acquired using pClamp 9.2 software (Molecular Devices) and an IBM compatible Pentium IV computer in conjunction with a DigiData 1322A interface (Molecular Devices). The patch pipettes were pulled from borosilicate glass (Warner Instrument Corp, USA) with a resistance of 2-5 MΩ. […] Series resistances (3-13 MΩ) were compensated (75-90%) and periodically monitored. […]

homomeric KCNQ3 channels = target: T2, homomeric KCNQ3 channels (Homo sapiens, UniProt O43525); assay: Homomeric KCNQ3 channels; assay type: cell-based; details: 25 μM; very small currents through homomeric KCNQ3
T2 construct: expressed in transfected cells
T2 sequence (O43525 whole entry): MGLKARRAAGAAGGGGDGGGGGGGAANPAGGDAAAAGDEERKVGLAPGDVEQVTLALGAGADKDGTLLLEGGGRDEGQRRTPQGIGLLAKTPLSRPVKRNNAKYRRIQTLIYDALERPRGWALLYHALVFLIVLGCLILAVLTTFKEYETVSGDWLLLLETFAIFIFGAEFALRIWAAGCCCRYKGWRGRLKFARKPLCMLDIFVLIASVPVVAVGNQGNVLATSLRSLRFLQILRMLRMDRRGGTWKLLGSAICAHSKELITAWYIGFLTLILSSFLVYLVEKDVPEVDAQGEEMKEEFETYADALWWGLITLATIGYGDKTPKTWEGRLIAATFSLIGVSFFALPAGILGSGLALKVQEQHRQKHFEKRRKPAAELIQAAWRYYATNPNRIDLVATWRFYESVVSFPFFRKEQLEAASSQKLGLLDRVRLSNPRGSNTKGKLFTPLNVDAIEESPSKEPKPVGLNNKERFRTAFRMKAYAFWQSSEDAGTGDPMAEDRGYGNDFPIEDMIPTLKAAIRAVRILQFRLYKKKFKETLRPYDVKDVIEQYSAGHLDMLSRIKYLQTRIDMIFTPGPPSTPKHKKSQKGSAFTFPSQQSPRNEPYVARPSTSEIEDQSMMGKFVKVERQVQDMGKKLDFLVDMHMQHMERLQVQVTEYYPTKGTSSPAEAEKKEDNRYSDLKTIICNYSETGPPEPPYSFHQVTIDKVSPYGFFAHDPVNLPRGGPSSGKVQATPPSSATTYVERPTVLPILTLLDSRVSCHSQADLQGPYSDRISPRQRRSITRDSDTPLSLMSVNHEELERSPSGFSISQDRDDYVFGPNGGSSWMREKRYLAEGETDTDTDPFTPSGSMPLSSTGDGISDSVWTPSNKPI
Procedure: FIG. 8 presents a bar-graph comparing the potentiating effect of 25 μM of Compound NH29 on various KCNQ subunits and mutants, wherein the opener effect is expressed as percent of the control current in the absence of the opener;
FIG. 8 presents a bar-graph comparing the potentiating effect of 25 μM of Compound NH29 on various KCNQ subunits and mutants, wherein the opener effect is expressed as percent of the control current in the absence of the opener.

DRG neurons = assay: Current-clamp recordings in cultured DRG neurons; assay type: cell-based, rat; details: for rheobase current to generate a single spike: 2 ms injection
Procedure: For dorsal root ganglion (DRG) neuronal cultures, ganglia were dissected from 2-5 day-old Sprague-Dawley rats killed by decapitation. DRGs were placed in Hank's balanced saline solution (HBSS) and prepared by enzymatic dissociation. Briefly, after 30 minutes incubation in 5 mg/ml dispase, 2 mg/ml collagenase type 1A and 0.1 mg/ml DNase (Invitrogen/Gibco, Carlsbad, Calif.) in Ca^2+ and Mg^2+-free HBSS, the ganglia were mechanically triturated with a fire-polished glass Pasteur pipette. The ganglia were then centrifuged for 5 minutes at 80×g and resuspended in DMEM supplemented with 2 mM L-glutamine, 16.5 mM NaHCO3, 6 g/l glucose, 5 ml penicillin/streptomycin and 10% fetal calf serum.
For electrophysiological recording, dissociated neurons were plated on 13 mm glass coverslips, previously coated with poly-D-lysine (1 mg/ml) and laminin (10 μg/ml) and used at 1-2 days in culture.
For current-clamp recordings in primary cultured neurons, the patch pipettes were filled with (in mM): 135 KCl, 1 K2ATP, 1 MgATP, 2 EGTA, 1.1 CaCl2, 5 glucose, 10 HEPES, adjusted with KOH at pH 7.4 (315 mOsm). The external solution contained (in mM): 150 NaCl, 2.5 KCl, 2 CaCl2, 2 MgCl2, 15 glucose, 10 HEPES, adjusted with NaOH at pH 7.4 (325 mOsm). Recordings were sampled at 5 kHz and filtered at 2 KHz via a 4-pole Bessel low pass filter. A liquid junction potential of about −15.6 mV was measured between the intracellular and saline solutions and corrected on-line.
For evoking spike discharges, 75-200 pA square depolarizing current pulses were injected into neurons for 400 ms. For rheobase current measurements, 100-1100 pA square depolarizing current pulses were injected into neurons for 2 ms.

COX = assay: Anti-COX activity in cell culture, CT26 and D122 cell lines (results in words); assay type: cell-based, mouse; details: COX-dependent synthesis of PGE2
Procedure: Mouse colon adenocarcinoma CT26 and mouse lewis lung carcinoma D122 cells were grown in DMEM (D122) or RPMI (CT26) supplemented with 10% fetal calf serum, 4% glutamine, 1% penicillin-streptomycin-nystatin and 3% non essential amino acids (D122) and were kept in a humidified 37° C. incubator with 5% CO2. For the COX activity assays, cells were grown onto 24 multi-well plates.
Before the assay, cells were washed with serum-free medium; then the tested compounds were added to the medium and incubated for 30 minutes at 37° C. after which 30 μM arachidonic acid were added and incubated for additional 20 minutes. At the end of the incubation period, 10 μM Indomethacin were added to stop the reaction and medium was transferred to another 24 multi-well plate for measuring PGE2 production by radioimmunoassay (DuPont-NEN; Boston Mass.) according to manufacturer protocol. Protein determination was assayed on scraped cells using the Bradford method (1976) [Bradford M. M. 1976. Anal. Biochem. 72:248-254], with BSA as a standard and was used to normalize the amount of PGE2 production.
The anti-COX activity of NH25, NH29 and NH30 was examined in Mouse colon adenocarcinoma CT26 and mouse lewis lung carcinoma D122 cell lines. Cells were incubated with each of the tested compounds and the level of the COX-dependent synthesis of PGE2 was quantified using radioimmunoassay techniques.

T1 sequence (Q8NER1 whole entry): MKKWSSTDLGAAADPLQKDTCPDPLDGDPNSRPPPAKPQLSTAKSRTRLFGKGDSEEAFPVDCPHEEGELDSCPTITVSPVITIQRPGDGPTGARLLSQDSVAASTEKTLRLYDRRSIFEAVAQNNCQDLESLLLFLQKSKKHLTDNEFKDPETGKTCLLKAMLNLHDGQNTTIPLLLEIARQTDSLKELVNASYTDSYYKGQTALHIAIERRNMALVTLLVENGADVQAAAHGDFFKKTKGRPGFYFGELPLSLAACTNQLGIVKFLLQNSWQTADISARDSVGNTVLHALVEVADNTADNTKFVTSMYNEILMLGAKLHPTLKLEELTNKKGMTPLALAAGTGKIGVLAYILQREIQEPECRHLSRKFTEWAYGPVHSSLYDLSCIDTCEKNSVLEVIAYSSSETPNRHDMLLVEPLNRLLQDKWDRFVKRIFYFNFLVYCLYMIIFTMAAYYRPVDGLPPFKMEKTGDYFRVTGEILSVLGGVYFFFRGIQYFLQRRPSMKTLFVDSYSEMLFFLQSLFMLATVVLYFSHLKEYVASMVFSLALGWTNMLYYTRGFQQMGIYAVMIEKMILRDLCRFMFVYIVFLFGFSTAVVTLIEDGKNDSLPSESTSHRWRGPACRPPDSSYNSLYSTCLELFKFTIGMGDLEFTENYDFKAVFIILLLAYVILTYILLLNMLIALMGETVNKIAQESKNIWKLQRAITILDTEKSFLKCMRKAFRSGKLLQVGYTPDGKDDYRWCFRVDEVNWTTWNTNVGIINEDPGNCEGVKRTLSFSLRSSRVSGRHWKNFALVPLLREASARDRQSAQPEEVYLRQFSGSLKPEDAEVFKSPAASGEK

SMILES | inhibition of TRPV1 channels (TRPV1 channel; NH29 at 5-50 M as printed) | inhibition of TRPV1 current (TRPV1 channel; 50 μM, reversible) | opening activity on homomeric KCNQ3 channels (homomeric KCNQ3 channels) | rheobase current to generate a single spike (DRG neurons; 25 μM NH29, control 178±36 pA, n=8) | resting membrane potential (DRG neurons; 25 μM NH29, control −56.0±2.2 mV, n=7) | hyperpolarization of resting membrane potential (DRG neurons; 25 μM NH29, n=7) | anti-COX activity (COX) | rheobase current to generate a single spike (DRG neurons; 25 μM NH25, control 400±41 pA, n=12) | number of evoked action potentials (DRG neurons; 25 μM NH25, 75-200 pA for 400 ms, control 10.4±0.8, n=8) | resting membrane potential (DRG neurons; 25 μM NH25, control −60.6±0.3 mV, n=13) | hyperpolarization of resting membrane potential (DRG neurons; 25 μM NH25, n=13)
O=C(Cc1cc([N+](=O)[O-])cc([N+](=O)[O-])c1Nc1c(Cl)cc([N+](=O)[O-])cc1Cl)NCCO [NH29] | potently inhibited TRPV1 channels | almost completely | no opening activity was detected | 300±55 pA | −65.0±3.4 mV | −9.0±1.9 mV | did not exhibit anti-COX activity |  |  |  | 
O=C(Cc1cc([N+](=O)[O-])ccc1Nc1c(Cl)cccc1Cl)OCCO [NH25] |  |  |  |  |  |  | exhibited anti-COX activity comparable to that of Diclofenac | 577±38 pA | 0.8±0.3 | −69.0±0.3 mV | −8.3±0.2 mV
